According to ChEMBL document CHEMBL1152569, “Synthesis, structure-affinity relationships, and modeling of AMDA analogs at 5-HT2A and H1 receptors: structural factors contributing to selectivity” (Bioorg Med Chem, 2009):

Legend:
Histamine H1 receptor = Histamine H1 receptor (Homo sapiens, UniProt P35367); assay: Displacement of [3H]chlorphniramine from human histamine H1 receptor expressed in cells; format: cell-based
[1] = biological target: 5-hydroxytryptamine receptor 2A (Homo sapiens, UniProt P28223); assay: Displacement of [3H]ketanserin from human 5HT2A receptor expressed in cells; format: cell-based
Sequence of 5-hydroxytryptamine receptor 2A (P28223 whole entry): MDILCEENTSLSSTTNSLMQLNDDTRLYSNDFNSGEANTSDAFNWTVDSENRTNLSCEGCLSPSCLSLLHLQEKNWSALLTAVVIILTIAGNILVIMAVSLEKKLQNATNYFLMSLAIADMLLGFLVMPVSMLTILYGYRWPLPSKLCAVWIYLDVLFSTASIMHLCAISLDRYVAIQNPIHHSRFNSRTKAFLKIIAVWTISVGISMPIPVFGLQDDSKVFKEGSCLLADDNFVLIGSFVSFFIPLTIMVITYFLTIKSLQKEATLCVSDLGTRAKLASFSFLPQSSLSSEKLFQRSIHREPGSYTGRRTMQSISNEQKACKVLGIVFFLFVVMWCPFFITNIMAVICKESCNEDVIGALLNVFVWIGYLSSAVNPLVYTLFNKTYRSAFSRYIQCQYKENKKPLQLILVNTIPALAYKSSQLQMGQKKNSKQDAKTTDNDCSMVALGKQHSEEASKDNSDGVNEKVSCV

Sequence of Histamine H1 receptor (P35367 whole entry): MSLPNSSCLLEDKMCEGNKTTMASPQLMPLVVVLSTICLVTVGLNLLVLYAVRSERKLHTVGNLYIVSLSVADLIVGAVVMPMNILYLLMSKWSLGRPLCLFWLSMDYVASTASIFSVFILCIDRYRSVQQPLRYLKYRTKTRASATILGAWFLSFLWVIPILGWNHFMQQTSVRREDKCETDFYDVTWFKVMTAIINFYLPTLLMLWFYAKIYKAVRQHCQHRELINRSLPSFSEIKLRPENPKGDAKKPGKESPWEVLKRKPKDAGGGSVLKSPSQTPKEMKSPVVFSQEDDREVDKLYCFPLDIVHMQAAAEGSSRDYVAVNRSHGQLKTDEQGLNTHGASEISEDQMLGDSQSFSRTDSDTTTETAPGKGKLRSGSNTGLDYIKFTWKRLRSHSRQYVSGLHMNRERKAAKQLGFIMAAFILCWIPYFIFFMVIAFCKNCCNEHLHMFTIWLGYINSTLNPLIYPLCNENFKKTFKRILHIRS

Ki (Histamine H1 receptor)	SMILES	Ki [1]
> 10000 nM	NCC(c1ccccc1)c1ccccc1	–
137 nM	NCCC1c2ccccc2Cc2ccccc21	–
> 10000 nM	CNCC(c1ccccc1)c1ccccc1	> 10000 nM
0.5 nM	CN(C)CCCC1c2ccccc2Cc2ccccc21	–
3 nM	CNCCCC1c2ccccc2Cc2ccccc21	–
189 nM	CNCC1c2ccccc2Cc2ccccc21	–
2760 nM	NCCC(c1ccccc1)c1ccccc1	> 10000 nM
25 nM	CN(C)CC1c2ccccc2Cc2ccccc21	–
386 nM	CNCCCC(c1ccccc1)c1ccccc1	754 nM
1670 nM	NCCCC(c1ccccc1)c1ccccc1	2590 nM

SMILES	Ki (Histamine H1 receptor)	Ki [1]
CN(C)CCC1c2ccccc2Cc2ccccc21	6 nM	84 nM
CN(C)CCC(c1ccccc1)c1ccccc1	75 nM	1640 nM
CNCCC1c2ccccc2Cc2ccccc21	48 nM	92 nM
CN(C)CC(c1ccccc1)c1ccccc1	5170 nM	7360 nM
NCC1c2ccccc2Cc2ccccc21	197 nM	–
CNCCC(c1ccccc1)c1ccccc1	64 nM	1500 nM
NCCCC1c2ccccc2Cc2ccccc21	175 nM	–
CN(C)CCCC(c1ccccc1)c1ccccc1	70 nM	1150 nM
